Assay results as given in the supplement of paper PMC11451515.

Experiments:
Conditions in all cases: 48 h
P12-Ichikawa [1] = assay: cell viability relative to DMSO control; higher = less cytotoxic
Procedure, shortened: (§1)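 Viability was expressed as a per-plate percentage of DMSO wells, with cell-free wells as background. Leukemia cells (NOMO1 or SEM at 500 cells/well, P12-Ichikawa at 1000 cells/well) were adapted for at least four passages in each medium and seeded in 1536-well plates (5 μl). Library compounds in DMSO were pin-dosed over an 11-point threefold series from 47 μM to 0.79 nM, and CellTiter-Glo One luminescence was read after 48 h at 37°C.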

SEM cells [2] = assay: as above
Procedure, shortened: as §1

NOMO1 [3] = assay: as above
Procedure, shortened: as §1

P12-Ichikawa [4] = assay: AUC of viability dose-response curve (% viability x log10 dose units); higher = less sensitive
Procedure, shortened: (§2)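 In 1536-well plates, leukemia cells adapted to each medium (500 or 1000 cells/well) were exposed for 48 h at 37°C to library compounds in DMSO across 11 threefold doses, 47 μM down to 0.79 nM. Viability was read by CellTiter-Glo One luminescence and normalised per plate to DMSO and cell-free wells. A four-parameter log-logistic fit over log10 doses was integrated by trapezoidal rule. This yielded the area under the curve, with over-full-viability curves scaled and quality-control failures dropped.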

NOMO1 [5] = assay: as above
Procedure, shortened: as §2

SEM cells [6] = assay: as above
Procedure, shortened: as §2

CC(=O)O[C@@]12CO[C@@H]1C[C@H](O)[C@]3(C)[C@@H]2[C@H](OC(=O)C4=CC=CC=C4)[C@]5(O)C[C@H](O)/C(=C(/[C@@H](O)C3=O)C5(C)C)C
cell viability [%]
Conditions	NOMO1 [3]	P12-Ichikawa [1]	SEM cells [2]
HPLM + 10% dialyzed FBS, 0.000781 µM	109	97.5	84.3
HPLM + 10% dialyzed FBS, 0.00234 µM	133	106	108
HPLM + 10% dialyzed FBS, 0.00702 µM	123	72.1	43.5
HPLM + 10% dialyzed FBS, 0.0211 µM	122	115	110
HPLM + 10% dialyzed FBS, 0.0632 µM	130	114	106
HPLM + 10% dialyzed FBS, 0.19 µM	131	117	111
HPLM + 10% dialyzed FBS, 0.569 µM	114	120	116
HPLM + 10% dialyzed FBS, 1.71 µM	121	120	107
HPLM + 10% dialyzed FBS, 5.12 µM	117	98.1	90.2
HPLM + 10% dialyzed FBS, 15.4 µM	36.1	36.6	35.8
HPLM + 10% dialyzed FBS, 46.1 µM	29.1	13.7	16.3
RPMI 5 mM glucose + 10% FBS, 0.000781 µM	98.1	100	70.4
RPMI 5 mM glucose + 10% FBS, 0.00234 µM	112	110	71.5
RPMI 5 mM glucose + 10% FBS, 0.00702 µM	111	69.7	19.1
RPMI 5 mM glucose + 10% FBS, 0.0211 µM	116	113	71
RPMI 5 mM glucose + 10% FBS, 0.0632 µM	118	116	64.7
RPMI 5 mM glucose + 10% FBS, 0.19 µM	108	119	72.3
RPMI 5 mM glucose + 10% FBS, 0.569 µM	105	122	70.1
RPMI 5 mM glucose + 10% FBS, 1.71 µM	113	113	65.2
RPMI 5 mM glucose + 10% FBS, 5.12 µM	109	88.6	54.2
RPMI 5 mM glucose + 10% FBS, 15.4 µM	51.8	28.7	18.1
RPMI 5 mM glucose + 10% FBS, 46.1 µM	13.3	7.33	8.94
RPMI 5 mM glucose + 10% dialyzed FBS, 0.000781 µM	89.8	100	90.8
RPMI 5 mM glucose + 10% dialyzed FBS, 0.00234 µM	92.8	114	99.6
RPMI 5 mM glucose + 10% dialyzed FBS, 0.00702 µM	106	77.5	43.2
RPMI 5 mM glucose + 10% dialyzed FBS, 0.0211 µM	121	117	116
RPMI 5 mM glucose + 10% dialyzed FBS, 0.0632 µM	113	113	105
RPMI 5 mM glucose + 10% dialyzed FBS, 0.19 µM	114	112	110
RPMI 5 mM glucose + 10% dialyzed FBS, 0.569 µM	106	121	121
RPMI 5 mM glucose + 10% dialyzed FBS, 1.71 µM	111	119	112
RPMI 5 mM glucose + 10% dialyzed FBS, 5.12 µM	115	104	75.1
RPMI 5 mM glucose + 10% dialyzed FBS, 15.4 µM	45.1	43.9	29.9
RPMI 5 mM glucose + 10% dialyzed FBS, 46.1 µM	19.3	18.5	13

AUC of viability dose-response curve
Conditions	HPLM + 10% dialyzed FBS	RPMI 5 mM glucose + 10% FBS	RPMI 5 mM glucose + 10% dialyzed FBS
NOMO1 [5]	423	430	430
P12-Ichikawa [4]	421	411	426

C=CC[N+]1([C@H]2C[C@H]3[C@@H]4CC[C@H]5C[C@H](O)[C@@H](N6CCOCC6)C[C@]5(C)[C@H]4CC[C@]3(C)[C@H]2OC(C)=O)CCCC1
SEM cells [2], HPLM + 10% dialyzed FBS
Conditions	cell viability [%]
0.000781 µM	130
0.00234 µM	116
0.00702 µM	119
0.0211 µM	125
0.0632 µM	114
0.19 µM	131
0.569 µM	124
1.71 µM	127
5.12 µM	119
15.4 µM	113
46.1 µM	113

AUC of viability dose-response curve
Conditions	NOMO1 [5]	P12-Ichikawa [4]	SEM cells [6]
HPLM + 10% dialyzed FBS	442	457	462
RPMI 5 mM glucose + 10% FBS	454	455	464
RPMI 5 mM glucose + 10% dialyzed FBS	455	462	465
